The text below walks through data of article PMC6639853, “Deciphering Direct and Indirect Effects of Neurokinin B and GnRH in the Brain-Pituitary Axis of Tilapia” (Frontiers in Endocrinology, 2019).

For assay [1], the target named is T1, huTAC3R (NK3R) (Homo sapiens, UniProt P29371).
T1 construct: host or cells: COS-7
T1 sequence (P29371 1-465): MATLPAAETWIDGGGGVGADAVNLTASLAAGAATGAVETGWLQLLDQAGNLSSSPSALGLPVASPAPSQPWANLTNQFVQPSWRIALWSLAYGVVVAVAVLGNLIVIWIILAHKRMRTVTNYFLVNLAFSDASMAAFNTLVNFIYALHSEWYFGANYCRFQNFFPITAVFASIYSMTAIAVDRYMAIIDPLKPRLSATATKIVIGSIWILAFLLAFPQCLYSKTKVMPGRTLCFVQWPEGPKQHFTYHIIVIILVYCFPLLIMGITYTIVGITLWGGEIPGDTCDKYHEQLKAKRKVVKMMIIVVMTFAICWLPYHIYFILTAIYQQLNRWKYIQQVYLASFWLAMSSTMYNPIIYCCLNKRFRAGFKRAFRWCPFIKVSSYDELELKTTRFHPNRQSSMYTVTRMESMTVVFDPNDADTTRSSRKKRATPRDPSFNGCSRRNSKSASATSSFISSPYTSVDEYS
The assay is described as follows: CRE-/SRE-Luc receptor transactivation reporter assay in COS-7 cells, human TAC3R. The class given is cell-based. The note with it: mean ± SEM. An excerpt:
(§1) Receptor transactivation assays were generally performed according to Biran et al. ([10]). Briefly, in order to study the signaling pathways of the novel fish NKB and NKF analogs, the entire coding sequence of tiTac3ra (GenBank accession no. KF471674), tiTac3rb (GenBank accession no. KF471675), zfTac3ra (GenBank accession no. JF317292) and zfTac3rb (GenBank accession no. JF317293) were inserted into pcDNA3.1 (Invitrogen). To differentiate between the protein kinase A (PKA) and PKC signal transduction pathways, we used a sensitive luciferase (Luc) reporter gene assay. […] The cDNA clone for human TAC3R was obtained from the Missouri S&T cDNA Resource Center (www.cdna.org). Three micrograms of each construct together with three micrograms of a luciferase reporter plasmid were transiently co-transfected into COS-7 cells. […] EC50 values were calculated from dose response curves by means of computerized non-linear curve fitting on baseline-corrected (control) values using Prism version 6 software (GraphPad).

For assay [2], the target named is T2, tiTac3ra (Oreochromis niloticus, UniProt A0A075QPN8). The assay is described as follows: cell-based. The note with it: COS-7 cells, mean ± SEM.
Source text: (§2) Receptor transactivation assays were generally performed according to Biran et al. ([10]). Briefly, in order to study the signaling pathways of the novel fish NKB and NKF analogs, the entire coding sequence of tiTac3ra (GenBank accession no. KF471674), tiTac3rb (GenBank accession no. KF471675), zfTac3ra (GenBank accession no. JF317292) and zfTac3rb (GenBank accession no. JF317293) were inserted into pcDNA3.1 (Invitrogen). To differentiate between the protein kinase A (PKA) and PKC signal transduction pathways, we used a sensitive luciferase (Luc) reporter gene assay. […] Three micrograms of each construct together with three micrograms of a luciferase reporter plasmid were transiently co-transfected into COS-7 cells. […] EC50 values were calculated from dose response curves by means of computerized non-linear curve fitting on baseline-corrected (control) values using Prism version 6 software (GraphPad).
Assay [3] deals with T3, zfTac3ra (Danio rerio, UniProt H6A6A7).
T3 sequence (H6A6A7 1-399): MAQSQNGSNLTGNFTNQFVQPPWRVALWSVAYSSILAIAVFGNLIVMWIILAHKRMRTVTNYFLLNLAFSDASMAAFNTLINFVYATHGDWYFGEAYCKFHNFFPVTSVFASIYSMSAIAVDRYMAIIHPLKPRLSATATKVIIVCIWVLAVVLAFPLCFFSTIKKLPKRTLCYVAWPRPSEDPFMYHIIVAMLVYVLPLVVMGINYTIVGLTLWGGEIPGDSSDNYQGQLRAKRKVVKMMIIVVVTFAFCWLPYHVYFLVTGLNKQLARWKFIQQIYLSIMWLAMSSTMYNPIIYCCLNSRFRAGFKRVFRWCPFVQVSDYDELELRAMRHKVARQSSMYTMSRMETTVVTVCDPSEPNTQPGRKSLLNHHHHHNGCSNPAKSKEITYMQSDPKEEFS
The assay can be described thus: CRE-/SRE-Luc receptor transactivation reporter assay in COS-7 cells, zebrafish Tac3ra. To be noted: mean ± SEM. The class given is cell-based.
Source text: as §1
In general terms: A reporter such as luciferase makes a cellular process visible.

The subject of assay [4] is female tilapia. The assay can be described thus: In vivo effect on GH, FSH and LH plasma levels (ELISA) after IP injection. The arrangement: species or system Nile tilapia (O. niloticus). The note with it: peptides/analogs 100 μg/kg BW. Here is the method: Adult female tilapia (BW 89.29 ± 32.93 g) were injected IP with saline, sGnRH analog ([…]; 10 μg/kg BW; [[…],[…]-Net]-mammalian GnRH; Bachem), tiNKB, tiNKF, or their analogs at 100 μg/kg BW (n = 8 fish per group). The fish were bled from the caudal blood vessels into heparinized syringes 1, 2, 4, 8, and 24 h after injection and blood was centrifuged (3,200 rpm for 30 min at 4°C) to obtain plasma samples, which were stored at -20°C until assayed. This time course is according to standard protocols used previously ([28], [29]) to test the effect of GnRH and other hypothalamic neuropeptides on circulating levels of LH, FSH, and GH in tilapia. Blood samples were collected from the caudal vasculature. Three independent experiments were carried out for the in vivo studies. Levels of LH, FSH, and GH in the plasma were measured by specific competitive ELISAs developed for tilapia ([30], [31]) based on recombinant ([…] or rtiGH. Primary antisera was produced against […]β, or rtGH ([31]), and […]βα ([28]) or rtGH was used for generating the standard curves.

Assay [5] concerns female tilapia pituitary. The assay can be described thus: In vivo effect on pituitary gh, fsh and lh mRNA expression (real-time PCR). The arrangement: species or system Nile tilapia (O. niloticus). The note with it: 24 h post IP injection, 100 μg/kg BW. Here is the method: Adult female tilapia (BW 89.29 ± 32.93 g) were injected IP with saline, sGnRH analog ([…]; 10 μg/kg BW; [[…],[…]-Net]-mammalian GnRH; Bachem), tiNKB, tiNKF, or their analogs at 100 μg/kg BW (n = 8 fish per group). The fish were bled from the caudal blood vessels into heparinized syringes 1, 2, 4, 8, and 24 h after injection and blood was centrifuged (3,200 rpm for 30 min at 4°C) to obtain plasma samples, which were stored at -20°C until assayed. This time course is according to standard protocols used previously ([28], [29]) to test the effect of GnRH and other hypothalamic neuropeptides on circulating levels of LH, FSH, and GH in tilapia. Blood samples were collected from the caudal vasculature. Three independent experiments were carried out for the in vivo studies. Pituitaries and three parts of the brain [the olfactory bulbs and telencephalon (front brain), the optic tectum and diencephalon (mid brain), and the cerebellum (hind brain)] were harvested at the end of each in vivo experiment, snap-frozen in liquid nitrogen, and stored at -80°C until extraction. Total RNA was extracted by phenol-chloroform using TRIzol reagent (Invitrogen) and precipitated with ethanol, and 1 μg was used as a template for cDNA synthesis using Verso cDNA kit (Thermo Scientific, Waltham, MA). Real-time PCR analysis was performed according to Biran et al. ([10], [20]). The specificity of the amplification was tested at the end of the PCR by melting-curve analysis and sequencing the PCR products.
(In general: Real-time PCR tracks product formation cycle by cycle.)

Assay [6] concerns the target tiTac3rb (Oreochromis niloticus, UniProt A0A075QUD7). The assay is described as follows: cell-based. The note with it: COS-7 cells, mean ± SEM.
Source text: as §2
Assay [7] deals with T4, zfTac3rb (Danio rerio, UniProt F1R3V0).
T4 sequence (F1R3V0 1-395): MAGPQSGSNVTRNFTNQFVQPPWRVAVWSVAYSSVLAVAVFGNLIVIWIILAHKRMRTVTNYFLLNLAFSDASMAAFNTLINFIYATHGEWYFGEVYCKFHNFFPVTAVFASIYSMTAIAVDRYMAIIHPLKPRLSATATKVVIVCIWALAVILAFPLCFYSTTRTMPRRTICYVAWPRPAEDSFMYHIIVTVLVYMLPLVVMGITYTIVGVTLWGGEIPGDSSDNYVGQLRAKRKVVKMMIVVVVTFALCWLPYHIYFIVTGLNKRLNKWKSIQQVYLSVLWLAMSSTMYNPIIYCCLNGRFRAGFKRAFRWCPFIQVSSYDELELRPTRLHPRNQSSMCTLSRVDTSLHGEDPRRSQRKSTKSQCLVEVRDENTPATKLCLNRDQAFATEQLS
The assay can be described thus: CRE-/SRE-Luc receptor transactivation reporter assay in COS-7 cells, zebrafish Tac3rb. The class given is cell-based. The note with it: mean ± SEM.
Source text: as §1

In assay [8] the target is T2, tiTac3ra. The note with it: read-out: EC50 tiTac3ra SRE; SRE-Luc reporter (PKC/Ca2+), COS-7 cells, mean ± SEM.
Source text: as §2
[9] abbreviates: SRE-Luc reporter (PKC/Ca2+), read-out: EC50 huTAC3R (NK3R) SRE.
[10] abbreviates: EC50 tiTac3ra CRE, CRE-Luc reporter (PKA/cAMP).
Setting [11] is: EC50 tiTac3ra SRE, SRE-Luc reporter (PKC/Ca2+).
Setting [12] is: EC50 tiTac3rb CRE, CRE-Luc reporter (PKA/cAMP).
Where [13] appears, read: EC50 tiTac3rb SRE, SRE-Luc reporter (PKC/Ca2+).

“And” between values parts separate entries of the source, which are not always exact repeats. Equal entries are not always repeated. Where two headings read alike, the source gives them in different places. Starred links: 1 amine or outer side, 2 acyl side, 3 side chain; linkers in the order of their positions; H or OH if unused. Non-standard residues stand in square brackets, D forms with d. Residues, ends and D or L forms follow the SMILES beside them. NMeF = CN[C@@H](Cc1ccccc1)C(=O)O; pGlu = O=C1CC[C@@H](C(=O)O)N1; Suc = O=C(CCC(=O)[*:2])[*:1]

tiTac3rb, sequence (A0A075QUD7 1-361): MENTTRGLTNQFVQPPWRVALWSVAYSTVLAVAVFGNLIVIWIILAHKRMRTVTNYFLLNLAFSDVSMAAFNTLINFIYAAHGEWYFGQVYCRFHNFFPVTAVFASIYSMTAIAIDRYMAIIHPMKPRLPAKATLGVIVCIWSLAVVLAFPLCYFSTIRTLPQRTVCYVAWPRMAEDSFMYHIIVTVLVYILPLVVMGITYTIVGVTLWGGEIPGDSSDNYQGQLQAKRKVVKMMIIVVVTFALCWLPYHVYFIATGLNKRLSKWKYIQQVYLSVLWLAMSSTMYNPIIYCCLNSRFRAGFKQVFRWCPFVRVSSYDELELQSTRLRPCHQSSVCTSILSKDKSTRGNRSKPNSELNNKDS
T2 sequence (A0A075QPN8 1-415): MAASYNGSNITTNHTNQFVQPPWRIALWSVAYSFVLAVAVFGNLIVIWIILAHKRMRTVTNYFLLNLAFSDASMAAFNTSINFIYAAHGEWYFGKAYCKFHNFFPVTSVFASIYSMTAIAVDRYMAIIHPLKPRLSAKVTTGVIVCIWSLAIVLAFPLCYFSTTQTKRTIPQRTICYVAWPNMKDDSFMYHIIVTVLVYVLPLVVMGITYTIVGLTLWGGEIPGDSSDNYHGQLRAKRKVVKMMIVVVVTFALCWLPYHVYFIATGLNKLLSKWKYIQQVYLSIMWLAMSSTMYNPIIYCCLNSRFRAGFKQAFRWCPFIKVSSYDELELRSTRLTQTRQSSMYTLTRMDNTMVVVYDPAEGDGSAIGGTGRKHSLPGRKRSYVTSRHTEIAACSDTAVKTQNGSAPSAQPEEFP

For the molecule `CSCC[C@H](NC(=O)[C@H](CC(C)C)NC(=O)CNC(=O)[C@H](C(C)C)N(C)C(=O)[C@H](Cc1ccccc1)NC(=O)[C@H](CO)NC(=O)[C@H](CC(=O)O)NC(=O)CCC(=O)O)C(N)=O` [NKF analog, Succ-Asp-Ser-Phe-N(Me)Val-Gly-Leu-Met-NH2], the concentration for a half-maximal effect (EC50) in assay [1] (setting [9]) was 43.2 ± 1.06 nM; in assay [2] (setting [10]), 2.57 ± 0.33 nM; in assay [2] (setting [11]), 1.73 ± 0.46 nM; in assay [3] (CRE-Luc reporter (PKA/cAMP), read-out: EC50 zfTac3ra CRE) it was 0.47 nM and 0.474 nM; in assay [3] (SRE-Luc reporter (PKC/Ca2+), read-out: EC50 zfTac3ra SRE), 1.15 ± 0.4 nM; in assay [6] (setting [12]), 160.6 ± 0.42 nM. Also, the EC50 in assay [6] (setting [13]) was 74.89 ± 0.66 nM; in assay [7] (CRE-Luc reporter (PKA/cAMP), read-out: EC50 zfTac3rb CRE) it was 2.69 ± 0.38 nM; in assay [7] (SRE-Luc reporter (PKC/Ca2+), read-out: EC50 zfTac3rb SRE), 25.74 ± 0.24 nM. Moreover, the “time post-injection at which plasma FSH was first increased” value in assay [4] came to 2 h. Moreover, the “time post-injection at which plasma LH was first increased” value in assay [4] (sGnRHa 10 μg/kg BW) came out at 1 h. In addition, the “GH mRNA expression in pituitary relative to control” value in assay [5] is given as “increased”. For the same molecule, in assay [5], the “LHβ mRNA expression in pituitary relative to control” value was “increased”.
In the case of `CSCC[C@H](NC(=O)[C@H](CC(C)C)NC(=O)CNC(=O)[C@H](Cc1ccccc1)N(C)C(=O)[C@H](Cc1ccccc1)NC(=O)[C@H](CC(=O)O)NC(=O)CCC(=O)O)C(N)=O` [Senktide] (Suc-DF[NMeF]GLM-NH2), the concentration giving a half-maximal response (EC50) in assay [2] (setting [10]) was found to be 14.1 ± 0.61 nM; in assay [6] (setting [12]), 3541 ± 1.47 nM; in assay [6] (setting [13]), 50.16 ± 0.17 nM; in assay [8], 128 ± 35 nM.
In the case of `CC[C@H](C)[C@H](NC(=O)[C@H](Cc1ccccc1)NC(=O)[C@@H](NC(=O)[C@H](CC(=O)O)NC(=O)[C@H](CC(=O)O)NC(=O)[C@H](CCSC)NC(=O)[C@@H]1CCC(=O)N1)[C@@H](C)CC)C(=O)NCC(=O)N[C@@H](CC(C)C)C(=O)N[C@@H](CCSC)C(N)=O` [tiNKB] ([pGlu]MDDIFIGLM-NH2), the concentration giving a half-maximal response (EC50) in assay [1] (CRE-Luc reporter (PKA/cAMP), read-out: EC50 huTAC3R (NK3R) CRE) was determined as 3.38 ± 0.42 nM. Besides, in assay [1] (setting [9]), the concentration giving a half-maximal response (EC50) came out at 0.02 nM. Also, the 50% effective concentration (EC50) in assay [2] (setting [10]) was 0.8 nM and 0.81 nM. Besides, the response in assay [2] (setting [11]) was half-maximal at 7.41 ± 0.44 nM (EC50). Also, in assay [4], the “time post-injection at which plasma FSH was first increased” value amounted to 2 h and the “time post-injection at which plasma GH was first increased” value worked out at 1 h. For the same molecule, in assay [4] (sGnRHa 10 μg/kg BW), the “duration of increased plasma LH post-injection” value is listed as “up to 4 h” and the “time post-injection at which plasma LH was first increased” value worked out at 2 h. In assay [5], the “FSHβ mRNA expression in pituitary relative to control” value is “increased”, the “GH mRNA expression in pituitary relative to control” value is on record as “increased” and the “LHβ mRNA expression in pituitary relative to control” value is “increased”. Moreover, in assay [6] (setting [12]), the EC50 is 26.5 ± 0.27 nM.

The EC50 is the concentration needed to bring the measured effect to its halfway point.
